Results as given in patent US20240164267A1, “GENETIC MECHANISM TO ENHANCE HEALTHY STEROLS AND HARD ENDOSPERM IN SEEDS” (Iowa State University Research Foundation, Inc., priority 2022, published 2024).

Key:
ZmSMT2 mRNA = experiment: Exogenous sterol feeding of maize seedlings, relative mRNA quantification of ZmSMT2; assay type: in vivo; details: for ZmSMT2 mRNA: wild type W22 roots
Description: FIG. 6C-D show relative mRNA quantification of ZmHMGR and ZmSMT2 genes in Zmcyp710a8-1 background in response to various sterols (10 μM) for 4 hours in roots (FIG. 6C) and in shoots (FIG. 6D). ZmACTIN served as the reference gene for normalization. Data are means±SD. Asterisks indicate statistical significance by Students t-test compared to 0 h in FIG. 6A and to Mock in FIG. 6B, FIG. 6C, and FIG. 6D. *P<0.05 **P<0.01 ***P<0.001; ns, not significant.

[1] = system: Zmcyp710a8-1 mutant root metabolites; experiment: Exogenous stigmasterol feeding of Zmcyp710a8-1 mutant, metabolite levels in root tissue (GC/MS); assay type: in vivo, maize; details: root tissue of Zmcyp710a8-1 null mutant with exogenous stigmasterol feeding, compared with W22
Description: Relative metabolite levels in the two maize mutants compared to their wild type are shown as fold changes in Root and Shoot. […] Asterisks indicate statistical significance by Students t-test compared to Zmcyp710a8-1. *P<0.05 **P<0.01 ***P<0.001.
To identify cellular metabolites influenced by stigmasterol, non-targeted GC/MS metabolite analysis of roots and shoots of maize Zmcyp710a8 and wild type was used. A total of 29 molecular features (13 known and 16 unknown molecular features) were identified in roots and 31 features (17 known and 14 unknown molecular features) in shoots (FIG. 7). The concentration of molecular features correlated with stigmasterol content among genotypes in maize and the features belonged to similar classes including sterol, amino acid, primary metabolism, and unknown features in roots and shoots (FIG. 7).
Since changes in metabolites among the genotypes correlated with stigmasterol content, it was reasoned that exogenous stigmasterol may reverse the metabolite levels in Zmcyp710a8-1 mutant to wild type levels.

ZmHMGR mRNA = experiment: Exogenous sterol feeding of maize seedlings, relative mRNA quantification of ZmHMGR; assay type: in vivo; details: for ZmHMGR mRNA: wild type W22 roots
[2] = roots and shoots of Zmcyp710a8-1, 10 μM sterol, 4 hours
[3] = 10 μM sterol feeding, after 4 and 8 h

| Compound | ZmSMT2 mRNA levels (ZmSMT2 mRNA; [2]) | ZmSMT2 mRNA (ZmSMT2 mRNA; [3]) | ZmSMT2 mRNA (ZmSMT2 mRNA; 10 μM stigmasterol, after 8 h) | levels of selected metabolites (sitosterol, campesterol, myo-inositol) [1] | ZmHMGR mRNA levels (ZmHMGR mRNA; [2]) | ZmHMGR mRNA (ZmHMGR mRNA; [3]) | ZmHMGR mRNA (ZmHMGR mRNA; 10 μM stigmasterol, after 8 h) |
| --- | --- | --- | --- | --- | --- | --- | --- |
| CC[C@H](/C=C/[C@@H](C)[C@H]1CC[C@H]2[C@@H]3CC=C4C[C@@H](O)CC[C@]4(C)[C@H]3CC[C@]12C)C(C)C [stigmasterol] | higher | induction | slightly decreased | shifted the levels of sitosterol, campesterol, and myo-inositol toward W22 levels | higher | induction | remained elevated |
| CC[C@H](CC[C@@H](C)[C@H]1CC[C@H]2[C@@H]3CC=C4C[C@@H](O)CC[C@]4(C)[C@H]3CC[C@]12C)C(C)C [sitosterol] | – | did not have a significant impact | – | – | – | did not have a significant impact | – |
